Measured values: patent publication US20250154154A1 (Relay Binney Street, 2nd Floor, priority 2020, published 2025)

Key:
[1] = biological target: SRC (Homo sapiens, UniProt P12931); assay: SRC Biochemical Assay Protocol (microfluidic mobility shift assay, FLPeptide4 substrate)
How it was run: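 Recombinant SRC (0.26 nM) preincubated 30 min at RT with compound (0.0017–100 μM) and 1.5 μM FLPeptide4, then 50 μM ATP added; 90 min reaction in HEPES pH 7.4, 10 mM MgCl2, 1% DMSO, EDTA-quenched. Phosphopeptide quantified by microfluidic mobility shift; IC50 from 4-parameter logistic fit.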

[2] = tested on: RBE cells; assay: Cell Viability Protocol (CellTiterGlo), RBE cells; assay type: cell-based; conditions: RBE or SNU-1079 cells, 72 or 120 hour, cell line and time not given
How it was run: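 RBE cells plated at 1200/well in RPMI 1640 with 10% FBS, incubated 24 h, then dosed with compound from DMSO stocks and incubated 72 or 120 h at 37° C. CellTiterGlo luminescence normalised to DMSO control; IC50 from 4-parameter fit.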

[3] = tested on: phospho-S6RP (Ser 235/236) in RBE cells; assay: Cellular Proliferation Protocol (cellular phospho-S6RP HTRF), RBE cells; assay type: cell-based; conditions: 6 hours treatment, RBE or SNU-1079 cells, cell line not given
How it was run: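 RBE cells, 2000/well, seeded 24 h before 6 h compound treatment at 37° C. Lysates were probed with a Eu-cryptate/d2 HTRF antibody sandwich for phospho-S6RP (Ser 235/236), incubated overnight at room temperature. Signal normalised to DMSO control and IC50 fitted to a 4-parameter curve.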

Molecule | IC50 [1] [nM] | IC50 [2] [nM] | IC50 ([3]; 6 h) [nM] | IC50 [3] [nM]
COc1cc(Oc2cccc(C)n2)ccc1-c1c(C#C[C@@H]2[C@H]3CN(C(=O)/C=C/CN(C)C)C[C@@H]23)n(C)c2ncnc(N)c12 [II-226, (E)-1-((1R,5S,6s)-6-((4-amino-5-(2-methoxy-4-((6-methylpyridin-2-yl)oxy)phenyl)-7-methyl-7H-pyrrolo[2,3-d]pyrimidin-6-yl)ethynyl)-3-azabicyclo[3.1.0]hexan-3-yl)-4-(dimethylamino) but-2-en-1-one] | 10 to 1000 | 10 to 1000 | 10 to 1000 | –
C=CC(=O)N1CCC(N2CC(C#Cc3c(-c4ccc(Cl)c(C)c4)c4c(N)ncnc4n3C(C)C)C2)CC1 [II-114] | ≤ 10 | 10 to 1000 | – | 10 to 1000
CN(C)C/C=C/C(=O)N1CC(C#Cc2c(-c3ccc(Oc4ccccc4)cc3)c3c(N)ncnc3n2C2CC(=O)N(C)C2)C1 (stereo not drawn) [II-192, (E)-4-(4-amino-6-((1-(4-(dimethylamino)but-2-enoyl)azetidin-3-yl)ethynyl)-5-(4-phenoxyphenyl)-7H-pyrrolo[2,3-d]pyrimidin-7-yl)-1-methylpyrrolidin-2-one] | 10 to 1000 | 1000 to 10000 | 1000 to 10000 | –
C=CC(=O)N1CCC(N2CC(C#Cc3c(-c4ccc5c(c4)N(C)CCO5)c4c(N)ncnc4n3C)C2)CC1 [II-107] | 1000 to 10000 | 1000 to 10000 | – | 1000 to 10000
CN(C)C/C=C/C(=O)N1C[C@@H]2[C@@H](C#Cc3c(-c4ccc(Oc5ccccc5)cc4)c4c(N)ncnc4n3C)[C@@H]2C1 [III-2] | 10 to 1000 | ≤ 10 | – | ≤ 10
C=CC(=O)N1C[C@@H]2[C@@H](C#Cc3c(-c4ccc(Cl)c(OC)c4)c4c(N)ncnc4n3C(C)C)[C@@H]2C1 [II-271] | ≤ 10 | ≤ 10 | ≤ 10 | –
C=CS(=O)(=O)N1CC[C@@H](N2CC(C#Cc3c(-c4ccc(Oc5ccccc5)c(OC)n4)c4c(N)ncnc4n3C)C2)[C@@H](O)C1 [II-323] | ≤ 10 | ≤ 10 | – | 10 to 1000
C=CC(=O)N1CC2C(C#Cc3c(-c4ccc(Cl)c5c4OCO5)c4c(N)ncnc4n3C)C2C1 (stereo not drawn) [II-127] | ≤ 10 | 10 to 1000 | – | 10 to 1000
C=CC(=O)N1CC[C@H](N2CC(C#Cc3c(-c4ccc(Oc5ccccc5)c(OC)c4)c4c(N)nccc4n3C)C2)[C@H](O)C1 [II-79] | 10 to 1000 | 10 to 1000 | – | 10 to 1000
C=CC(=O)N1CC[C@H](N2CC(C#Cc3c(-c4ccc(Cl)c(C)n4)c4c(N)ncnc4n3C(C)C)C2)[C@H](F)C1 [II-328] | 10 to 1000 | 10 to 1000 | – | 10 to 1000
C=CC(=O)N1C[C@@H]2[C@@H](C#Cc3c(-c4cccc5c4OCO5)c4c(N)ncnc4n3C(C)C)[C@@H]2C1 [II-132] | ≤ 10 | ≤ 10 | – | ≤ 10
C=CC(=O)N1CCC(N2CC(C#Cc3c(-c4ccc(Oc5ccccc5)cc4)c4c(N)ncnc4n3C3CC(=O)N(C)C3)C2)CC1 (stereo not drawn) [II-213, 4-(6-((1-(1-acryloylpiperidin-4-yl)azetidin-3-yl)ethynyl)-4-amino-5-(4-phenoxyphenyl)-7H-pyrrolo[2,3-d]pyrimidin-7-yl)-1-methylpyrrolidin-2-one] | 1000 to 10000 | 1000 to 10000 | 1000 to 10000 | –
C=CC(=O)N1CCC(N2CC(C#Cc3c(-c4ccc(Oc5cccc(C)n5)c(OC)c4)c4c(N)ncnc4n3C)C2)CC1 [II-81] | 10 to 1000 | 10 to 1000 | – | 10 to 1000

The next lines start with results.

IC50 [1] [nM] | Molecule | IC50 [2] [nM] | IC50 ([3]; 6 h) [nM] | IC50 [3] [nM]
10 to 1000 | C=CC(=O)N1CC[C@@H](N2CC(C#Cc3c(-c4ccc(C(F)(F)F)cc4)c4c(N)ncnc4n3C)C2)[C@@H](O)C1 [II-72] | 10 to 1000 | – | 10 to 1000
10 to 1000 | C=CC(=O)N1CCC(N2CC(C#Cc3c(-c4ccc(Cl)c(OC)c4)c4c(N)ncnc4n3C)C2)C[C@H]1CO (stereo partly drawn) [II-256] | 10 to 1000 | 10 to 1000 | –
10 to 1000 | C=CC(=O)N1CCC(N2CC(C#Cc3c(-c4ccc(Oc5cccc(C)n5)cc4)c4c(N)ncnc4n3C)C2)C(O)C1 (stereo not drawn) [II-215, 1-(4-(3-((4-amino-7-methyl-5-(4-(6-methylpyridin-2-yloxy)phenyl)-7H-pyrrolo[2,3-d]pyrimidin-6-yl)ethynyl)azetidin-1-yl)-3-hydroxypiperidin-1-yl)prop-2-en-1-one] | 10 to 1000 | 10 to 1000 | –
≤ 10 | CCn1c(C#C[C@@H]2[C@H]3CN(C(=O)/C=C/CN(C)C)C[C@@H]23)c(-c2cccc3c2OCO3)c2c(N)ncnc21 [II-117] | ≤ 10 | – | ≤ 10
≤ 10 | C=CC(=O)N1CCC(N2CC(C#Cc3c(-c4ccc(Cl)c(OC)c4)c4c(N)ncnc4n3C(C)C)C2)CC1 [II-86] | 10 to 1000 | – | ≤ 10
10 to 1000 | C=CC(=O)N1CC[C@@H](N2CC(C#Cc3c(-c4ccc(Oc5ccccc5)cc4)c4c(N)ncnc4n3C)C2)[C@@H](O)C1 [II-165, 1-((3S,4R)-4-(3-((4-amino-7-methyl-5-(4-phenoxyphenyl)-7H-pyrrolo[2,3-d]pyrimidin-6-yl)ethynyl)azetidin-1-yl)-3-hydroxypiperidin-1-yl)prop-2-en-1-one] | ≤ 10 | ≤ 10 | –
10 to 1000 | C=CC(=O)N1CCC(N2CC(C#Cc3c(-c4ccc(Oc5cccc(C)n5)cc4)c4c(N)ncnc4n3C)C2)C(F)C1 (stereo not drawn) [II-216, 1-(4-(3-((4-amino-7-methyl-5-(4-(6-methylpyridin-2-yloxy)phenyl)-7H-pyrrolo[2,3-d]pyrimidin-6-yl)ethynyl)azetidin-1-yl)-3-fluoropiperidin-1-yl)prop-2-en-1-one] | 10 to 1000 | 10 to 1000 | –
≤ 10 | C=CC(=O)N1CC[C@H](N2CC(C#Cc3c(-c4ccc(F)c5c4OCO5)c4c(N)ncnc4n3C(C)C)C2)[C@H](F)C1 [II-286, 1-((3R,4S)-4-(3-((4-amino-5-(7-fluorobenzo[d][1,3]dioxol-4-yl)-7-isopropyl-7H-pyrrolo[2,3-d]pyrimidin-6-yl)ethynyl)azetidin-1-yl)-3-fluoropiperidin-1-yl)prop-2-en-1-one] | 10 to 1000 | ≤ 10 | –
10 to 1000 | C=CC(=O)N1CCC(N2CC(F)(C#Cc3c(-c4ccc(Oc5cccc(C)n5)c(OC)c4)c4c(N)ncnc4n3C)C2)CC1 [II-243] | 10 to 1000 | 10 to 1000 | –
≤ 10 | C=CC(=O)N1CCC(O)(C#Cc2c(-c3ccc(Oc4ccccc4)cc3)c3c(N)ncnc3n2C(C)C)CC1 [Example I-25] | ≤ 10 | ≤ 10 | –
10 to 1000 | C=CC(=O)N1CC[C@@H](N2CC(C#Cc3c(-c4ccc(OC)cc4)c4c(N)ncnc4n3C)C2)[C@@H](O)C1 [II-25] | 10 to 1000 | – | 10 to 1000
10 to 1000 | Cn1c(C#CC2CCCN(C(=O)/C=C/CN3CC(O)C3)CC2)c(-c2ccc(Oc3ccccc3)cc2)c2c(N)ncnc21 (stereo not drawn) [II-183, (E)-1-(4-((4-amino-7-methyl-5-(4-phenoxyphenyl)-7H-pyrrolo[2,3-d]pyrimidin-6-yl)ethynyl)azepan-1-yl)-4-(3-hydroxyazetidin-1-yl)but-2-en-1-one] | 10 to 1000 | 1000 to 10000 | –
10 to 1000 | C=CC(=O)N1CC[C@@H](N2CC(C#Cc3c(-c4ccc(Oc5ccsn5)cc4)c4c(N)ncnc4n3C)C2)[C@@H](O)C1 [II-12] | 10 to 1000 | 10 to 1000 | –
≤ 10 | C=CC(=O)N1CCC(N2CC(C#Cc3c(-c4ccc(Br)c(OC)c4)c4c(N)ncnc4n3C(C)C)C2)CC1 [II-161, 1-(4-(3-((4-amino-5-(4-bromo-3-methoxyphenyl)-7-isopropyl-7H-pyrrolo[2,3-d]pyrimidin-6-yl)ethynyl)azetidin-1-yl)piperidin-1-yl)prop-2-en-1-one] | 10 to 1000 | 10 to 1000 | –
10 to 1000 | C=CC(=O)N1C[C@@H]2[C@@H](C#Cc3c(-c4ccc(Oc5cccc(C)n5)c(OC)c4)c4c(N)ncnc4n3CCCS(C)(=O)=O)[C@@H]2C1 [II-279] | 10 to 1000 | 10 to 1000 | –
10 to 1000 | C=CC(=O)N1CCC(N2CC(C#Cc3c(-c4ccc(OC(F)(F)F)cc4)c4c(N)ncnc4n3C)C2)CC1 [II-103] | 10 to 1000 | – | 10 to 1000
10 to 1000 | 1-((1R,5S,6s)-6- ((4-amino-5-(2- methoxy-4-((6- methylpyridin-2- yl)oxy)phenyl)-7- (2-methoxyethyl)- 7H-pyrrolo[2,3- d]pyrimidin-6- yl)ethynyl)-3- azabicyclo[3.1.0] hexan-3-yl)prop-2- en-1-one [II-275] | 10 to 1000 | – | 10 to 1000
10 to 1000 | C=CC(=O)N1C[C@@H]2[C@@H](C#Cc3c(-c4ccc(Oc5cccc(C)n5)cc4OC)c4c(N)ncnc4n3CS(C)(=O)=O)[C@@H]2C1 [II-50] | 1000 to 10000 | – | 1000 to 10000
10 to 1000 | C=CC(=O)N1CCC(N2CC(C#Cc3c(-c4ccc(Cl)cc4)c4c(N)ncnc4n3CCOC)C2)CC1 [II-85] | 10 to 1000 | – | 10 to 1000
≤ 10 | C=CC(=O)N1CCC(C#Cc2c(-c3ccc(Br)c(OC)c3)c3c(N)ncnc3n2C(C)C)CC1 [II-160, 1-(4-((4-amino-5-(4-bromo-3-methoxyphenyl)-7-isopropyl-7H-pyrrolo[2,3-d]pyrimidin-6-yl)ethynyl)piperidin-1-yl)prop-2-en-1-one] | 10 to 1000 | 10 to 1000 | –
